The numbers were not newly measured in patent publication US20200390726A1, “Compositions for Improved Neuroprotective Effects and Methods of Making Same” (Guardion Health Sciences, LLC, priority 2019, published 2020), which cites them from elsewhere.

Structures are written as SMILES.

The test system of the data set is glaucoma patients. The following applies: literature, anthocyanins 50 mg daily, PEA 600 mg per day, Mirtogenol dose not given.

`CCCCCCCCCCCCCCCC(=O)NCCO` [PEA, Palmitoylethanolamide]: the “effect on visual field” value (citicoline 500 to 1,000 mg daily) is given as “improvement in the visual field”. Also, the “effect on intraocular pressure (IOP)” value (forskolin 1% eye drops) was “lowering of IOP”.
